In US7232912B2, “Indazole compounds, pharmaceutical compositions, and methods for mediating or inhibiting cell proliferation” (Agouron Pharmaceuticals, Inc., priority 2000, dated 2007):
One block for each compound: values may come before it.

What was measured:
Assay type in all cases: biochemical
LCK tyrosine kinase = molecular target: T1, LCK tyrosine kinase (Homo sapiens, UniProt P06239, C224D/P223M); test: Inhibition of phosphorylated LCK tyrosine kinase activity; details: read-out: LCK % Inhib. at 1 μM
T1 construct: starting from amino acid 223 to the end of the protein at amino acid 509; made in house; host or cells: insect cells
Experimental: Inhibition of Phosphorylated FGF Receptor and LCK Tyrosine Kinase Activity
Cloning, expression and purification of the cytosolic domain of FGFR1 tyrosine kinase (amino acids 456–766) containing three amino acid substitutions (L457V, C488A, and C584S) were conducted as previously described (Mohammadi, M., Schlessinger, J., & Hubbard, S. R. (1996) Cell 86, 577–587). This domain was expressed in Sf9 insect cells using a baculovirus expression vector, and protein was purified using conventional techniques. The LCK tyrosine kinase was expressed in insect cells as an N-terminal deletion starting from amino acid 223 to the end of the protein at amino acid 509. The N-terminus of the protein also had two amino acid substitutions, P223M and C 224D. Kinases were purified using conventional chromatographic methods.
Tyrosine kinase activity was measured using a coupled, continuous spectrophotometric assay, in which production of phosphorylated poly(Glu, Tyr; 4:1) substrate and ADP is coupled to the pyruvate kinase-catalyzed transfer of a phosphate from phosphoenolpyruvate to ADP, with generation of pyruvate and regeneration of ATP. Pyruvate production is in turn coupled to the lactate dehydrogenase-catalyzed reduction of pyruvate to form lactate, with concomitant conversion of NADH to NAD+. Loss of NADH is monitored by measuring absorbance at 340 nm (see e.g., Technikova-Dobrova et al., “Spectrophotometric determination of functional characteristics of protein kinases with coupled enzymatic assay,” FEBS Letters, vol. 292 (1991), pp. 69–72). Enzyme activity was measured in the presence of 200 mM HEPES (pH 7.5), 2 mM phosphoenolpyruvate, 0.3 mM NADH, 20 mM MgCl2, 100 μM ATP, 5 mM DTT, 5.1 or 25 mM poly (Glu,Tyr) 4:1 for P-FGF or P-LCK assays, respectively, and 15 units/mL each of pyruvate kinase and lactate dehydrogenase. Phosphorylated FGF receptor kinase was present at 100 nM and phosphorylated LCK kinase was present at 50 nM. Assays were performed under initial rate conditions at 37° C., and rates were corrected for any background rate measured in the absence of enzyme. Percent inhibition was calculated relative to control enzyme assayed in the presence of 2% (v/v) DMSO.

human CHK1 = molecular target: T2, human CHK1 (Homo sapiens, UniProt O14757); test: CHK1 Assay (coupled spectrophotometric)
T2 construct: C-terminally His-tagged full-length human CHK1 (FL-CHK1) was expressed using the baculovirus/insect cell system; made in house; host or cells: baculovirus/insect cells
T2 sequence (O14757 1-476): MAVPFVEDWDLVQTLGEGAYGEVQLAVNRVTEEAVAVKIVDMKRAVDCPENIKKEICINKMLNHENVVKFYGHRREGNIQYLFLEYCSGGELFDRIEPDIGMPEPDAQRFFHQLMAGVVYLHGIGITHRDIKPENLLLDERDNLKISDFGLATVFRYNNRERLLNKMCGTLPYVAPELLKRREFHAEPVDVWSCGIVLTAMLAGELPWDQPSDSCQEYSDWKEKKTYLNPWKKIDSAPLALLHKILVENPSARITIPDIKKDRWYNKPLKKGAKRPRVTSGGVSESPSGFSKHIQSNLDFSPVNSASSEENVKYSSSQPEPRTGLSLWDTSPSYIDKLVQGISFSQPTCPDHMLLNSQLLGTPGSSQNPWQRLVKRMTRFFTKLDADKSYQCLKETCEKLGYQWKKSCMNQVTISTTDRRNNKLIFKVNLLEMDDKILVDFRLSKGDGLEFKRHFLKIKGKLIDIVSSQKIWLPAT
Text: C-terminally His-tagged full-length human CHK1 (FL-CHK1) was expressed using the baculovirus/insect cell system. It contains 6 histidine residues (6×His-tag) at the C-terminus of the 476 amino acid human CHK1. The protein was purified by conventional chromatographic techniques.
The production of ADP from ATP that accompanies phosphoryl transfer to the synthetic substrate peptide Syntide-2 ([…]) was coupled to oxidation of NADH using phosphoenolpyruvate (PEP) through the actions of pyruvate kinase (PK) and lactic dehydrogenase (LDH). The oxidation of NADH was monitored by following the decrease of absorbance at 340 nm (ε340=6.22 cm^−1 mM^−1) using a HP8452 spectrophotometer. Typical reaction solutions contained: […]; 0.15 mM NADH; 28 units of LDH/ml; 16 units of PK/ml; 3 mM DTT; 0.125 mM Syntide-2; 0.15 mM ATP; 25 mM MgCl2 in 50 mM TRIS, pH 7.5; and 400 mM NaCl. Assays were initiated with 10 nM of FL-CHK1. Ki values were determined by measuring initial enzyme activity in the presence of varying concentrations of test compounds. The data were analyzed using Enzyme Kinetic and Kaleidagraph software.

FAK = test: Coupled Spectrophotometric (FAK) Assay
Experimental: Coupled Spectrophotometric (FAK) Assay
Tyrosine kinase assays were monitored using a Beckman DU 650 Spectrophotometer. Production of ADP was coupled to oxidation of NADH using phosphoenolpyruvate (PEP) through the actions of pyruvate kinase (PK) and lactic dehydrogenase (LDH). The oxidation of NADH was monitored by following the decrease in absorbance at 340 nm (ε340=6.22 cm^−1 mM^−1). Typical reaction solutions contained: 1 mM PEP, 250 μM NADH, 50 units of LDH/mL, 20 units of PK/mL, 5 mM DTT, in 200 mM Hepes, pH 7.5 and varying concentrations of poly(E4Y1), ATP and MgCl2. Assays were initiated with 40 nM of […].

T1 sequence (P06239 223-509 P223M/C224D): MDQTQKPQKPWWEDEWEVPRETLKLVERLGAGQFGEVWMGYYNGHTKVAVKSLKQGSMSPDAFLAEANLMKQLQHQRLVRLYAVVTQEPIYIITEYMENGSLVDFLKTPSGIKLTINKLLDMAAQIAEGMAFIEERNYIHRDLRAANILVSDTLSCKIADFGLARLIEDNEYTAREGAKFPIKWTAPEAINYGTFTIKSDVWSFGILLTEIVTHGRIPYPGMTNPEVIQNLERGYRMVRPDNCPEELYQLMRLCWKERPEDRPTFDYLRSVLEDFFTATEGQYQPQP

SMILES: Cc1c(O)cccc1-c1ccc2[nH]nc(/C=C/c3ccccc3)c2c1 [15′, 2-Methyl-3-[3-((E)-styryl)-1H-indazol-5-yl]-phenol]
inhibition at 1 µM (LCK tyrosine kinase): 17%
inhibition at 1 µM (human CHK1; read-out: CHK1 % inhibition at 1 μM): 16%

SMILES: Cc1c(O)cccc1-c1ccc2[nH]nc(-c3nc4ccccc4[nH]3)c2c1 [10′, 3-[3-(1H-Benzoimidazol-2-yl)-1H-indazol-5-yl]-2-methyl-phenol]
inhibition at 1 µM (LCK tyrosine kinase): 21%
inhibition at 10 µM (human CHK1; read-out: CHK1 % inhibition @ 10 μM, at 10 μM): 5%

SMILES: c1ccc2[nH]c(-c3n[nH]c4ccc(-c5cccc6[nH]ccc56)cc34)nc2c1 [Example 48, 3-(1H-Benzoimidazol-2-yl)-5-(1H-indol-4-yl)-1H-indazole]
Ki (human CHK1): 7.82 µM

Continued, in another order:

Ki (human CHK1): 81 µM
SMILES: C(=C\c1n[nH]c2ccc(-c3cncc4ccccc34)cc12)/c1ccccc1 [Example 16]
FAK % Inhibition at 1 μM (FAK): 47%

inhibition at 1 µM (LCK tyrosine kinase): 11%
inhibition at 20 µM (human CHK1): 80%
SMILES: Fc1ccccc1-c1ccc2[nH]nc(-c3nc4ccccc4[nH]3)c2c1 [Example 6, 3-(1H-Benzoimidazol-2-yl)-5-(2-fluorophenyl)-1H-Indazole]
